Data: ChEMBL document CHEMBL5634207, “Helical sulfonyl-γ-AApeptides for the inhibition of HIV-1 fusion and HIF-1α signaling” (RSC Med Chem, 2024)

Legend:
[1] = biological target: Hypoxia-inducible factor 1-alpha (Homo sapiens, UniProt Q16665); assay: Binding affinity to HIF-1alpha (unknown origin) assessed as dissociation constant
[2] = Cytotoxicity against human MT2 cells; format: toxicity, cell-based
[3] = system: Human immunodeficiency virus 1; assay: Antiviral activity against HIV-1 IIIB infected in human MT2 cells incubated overnight by ELISA method; format: functional, organism-based; conditions: Human immunodeficiency virus 1, MT2

Hypoxia-inducible factor 1-alpha, sequence (Q16665 whole entry): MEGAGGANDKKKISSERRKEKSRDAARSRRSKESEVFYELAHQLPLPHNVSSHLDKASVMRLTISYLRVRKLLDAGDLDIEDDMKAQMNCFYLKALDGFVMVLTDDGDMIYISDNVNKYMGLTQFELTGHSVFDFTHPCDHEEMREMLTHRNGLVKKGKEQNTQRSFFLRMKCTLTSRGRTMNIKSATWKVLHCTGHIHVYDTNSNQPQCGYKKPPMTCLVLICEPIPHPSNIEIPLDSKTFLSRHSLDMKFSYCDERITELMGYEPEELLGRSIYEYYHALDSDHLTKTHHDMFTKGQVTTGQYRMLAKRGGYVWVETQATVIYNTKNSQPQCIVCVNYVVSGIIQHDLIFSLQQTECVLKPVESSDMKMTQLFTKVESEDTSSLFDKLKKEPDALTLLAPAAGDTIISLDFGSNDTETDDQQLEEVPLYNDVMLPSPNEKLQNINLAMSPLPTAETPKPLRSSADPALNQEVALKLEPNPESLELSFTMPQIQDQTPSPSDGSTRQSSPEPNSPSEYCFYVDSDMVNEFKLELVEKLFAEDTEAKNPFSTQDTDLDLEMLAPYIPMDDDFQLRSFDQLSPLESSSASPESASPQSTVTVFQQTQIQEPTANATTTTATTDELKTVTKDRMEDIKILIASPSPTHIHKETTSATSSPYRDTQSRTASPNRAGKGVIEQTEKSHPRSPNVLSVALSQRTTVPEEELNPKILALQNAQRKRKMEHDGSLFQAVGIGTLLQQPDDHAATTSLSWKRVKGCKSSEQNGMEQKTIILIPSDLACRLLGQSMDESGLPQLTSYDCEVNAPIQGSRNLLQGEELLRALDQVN

Compound | Kd [1] [nM] | CC50 [2] [nM] | IC50 [3] [nM]
CC(=O)N[C@@H](CC(C)C)CN(CC(=O)N[C@@H](CCC(=O)O)CN(CC(=O)N[C@@H](CC(C)C)CN(CC(=O)N[C@@H](CCCCN)CN(CC(=O)N[C@@H](CC(C)C)CN(CC(N)=O)S(=O)(=O)CCN)S(C)(=O)=O)S(C)(=O)=O)S(=O)(=O)CC(C)C)S(C)(=O)=O | 97 |  | 
CC(=O)N[C@@H](CCC(=O)O)C(=O)N[C@@H](CC(C)C)CN(CC(=O)N[C@@H](CC(C)C)CN(CC(=O)N[C@@H](CC(C)C)CN(CC(=O)N[C@@H](C)CN(CC(=O)N[C@@H](C)CN(CC(=O)N[C@@H](CCC(N)=O)C(N)=O)S(=O)(=O)CC(C)C)S(C)(=O)=O)S(=O)(=O)CC(C)C)S(=O)(=O)CCN)S(=O)(=O)CC(C)C | 514 |  | 
enfuvirtide |  | > 100000 | 36

The next lines start with results.

Kd [1] [nM] | Compound | CC50 [2] [nM] | IC50 [3] [nM]
489 | CC(=O)N[C@@H](CCC(=O)O)CN(CC(=O)N[C@@H](CC(C)C)CN(CC(=O)N[C@@H](C)CN(CC(=O)N[C@@H](CCC(=O)O)CN(CC(=O)N[C@@H](CC(C)C)CN(CC(N)=O)S(=O)(=O)CC(C)C)S(C)(=O)=O)S(=O)(=O)CC(C)C)S(=O)(=O)CCN)S(=O)(=O)CC(C)C |  | 
> 10000 | Ac-EELLRALDQV-OH |  | 
